The target in assay [1] is rat α-glucosidase (Rat aG). In words: Test of IC50: inhibitive activity on rat α-glucosidase. It is filed as biochemical. To be noted: Embodiment 2, Table 2, single components. From the text:
(§1) Testing and comparing the inhibitive activity Max % and IC50 of the composition and a known diabetes drug A (α-glucosidase inhibitor) to rat α-glucosidase (abbreviated as Rat aG) and yeast α-glucosidase (abbreviated as Yeast aG), individually. IC50 means the concentration of the inhibitor to achieve 50% inhibition rate.
(§2) The present embodiment tests IC50 of adenine, 3-hydroxy-dl-proline, nicotinic acid, (3,6-dioxo-piperazin-2-yl)-acetic acid amide, 2-ethylhexyl heptanoate, and the diabetes drug A to Rat aG and Yeast aG, individually.

The target in assay [2] is yeast α-glucosidase (Yeast aG). It is filed as biochemical. To be noted: Embodiment 2, Table 2, single components.
Excerpt: as §1, §2

With `O=C(O)c1cccnc1` [Nicotinic acid], the “Rat aGI (IC50 to Rat aG)” value in assay [1] was determined as 67 µg/mL. Besides, the “Yeast aGI (IC50 to Yeast aG)” value in assay [2] worked out at 517 µg/mL.
For the compound `Nc1ncnc2nc[nH]c12` [Adenine], the “Yeast aGI (IC50 to Yeast aG)” value in assay [2] stood at 21.5 µg/mL.
On to `NC(=O)CC1NC(=O)CNC1=O` (stereo not shown) [(3,6-dioxo-piperazin-2-yl)-acetic acid amide], for which the “Rat aGI (IC50 to Rat aG)” value in assay [1] turned out to be 105 µg/mL. Also, the “Yeast aGI (IC50 to Yeast aG)” value in assay [2] was 4.0 µg/mL.
On the same counts, the results for `CCCCCCC(=O)OCC(CC)CCCC` (stereo not shown) [2-ethylhexyl heptanoate] are 105 µg/mL and 4.0 µg/mL.

The record behind these values is patent publication US10159668B2, “Pharmaceutical composition for inhibiting alpha-glucosidase” (Tamkang University, priority 2017, dated 2018).
